Tests used:
mouse DC [1] = assay: Calcium flux assay, mouse DC; assay type: cell-based
Procedure: Changes in the levels of intracellular Ca^2+ were assessed in Indol-loaded cells by flow cytometry as described previously (Takahashi et al. (2005) J. Exp. Med. 201:647-657). Briefly, 5×10^6 DC/ml were incubated with 5 μM Indo-1 (Calbiochem) at 37° C. for 30 minutes. The cells were washed twice in serum free media and resuspended at 10^6/ml in PBS containing 0.5% BSA. The samples were analyzed by flow cytometry using a UV laser. Violet (390 nm) and blue (500 nm) fluorescence emissions were recorded. Baseline was recorded for two minutes. Antibody was added to the cell suspension (10 μg/ml of control antibody or B7-DC XAb) and the measurements were recorded for 8 additional minutes. In blocking experiments, mouse or human DC were pre-incubated with 10 μg/ml of purified anti-mouse B7-DC antibody (TY-25) or purified anti-human B7-DC antibody (MIH18) for 15 minutes, followed by collection of data for calcium flux as described above. Ionomycin added at 1 μg/ml after 2 minutes served as a positive control. The blue to violet ratio was calculated using FlowJo software (Tristar, Ashland, Oreg.).

NF-κB = assay: NFκB activation assay in mouse DC; assay type: cell-based
Procedure: DC of murine or human origin were stimulated with 10 μg/ml of control antibody or the MTAb B7-DC XAb for 30 minutes, while stimulation of oligodendrocytes was achieved by addition of 10 μg/ml of MTAb sHIgM39, 04, or sHIgM22 for same period of time. All groups were fixed and permeabilized using a Cytofix/Cytoperm Kit (BD PharMingen, San Diego, Calif.) for 20 minutes on ice. Subsequently, rabbit antibody against a C terminal peptide of NF-kB (sc372) was added, incubated for 30 minutes at 4° C. and washed three times with Cytoperm Buffer. Anti-rabbit FITC was used to detect the bound sc372 antibody by incubating the cells for 30 minutes (green). Cells were washed three times before the nuclei were stained with DAPI (blue) (Sigma Aldrich). The cells were then harvested from the plate, cytospin slides were made, and cells were visualized using a LSM510 Laser scanning confocal microscope (Carl-Zeiss Inc, Oberkochen, Germany) at 40.times magnification.

mouse DC [2] = assay: Co-immunoprecipitation with class II IA^b from mouse DC; assay type: cell-based
Source text: In FIG. 5A, the distribution of class II (labeled with APC-conjugated antibody) and CD80/CD86 molecules (labeled with PE-conjugated antibodies) was visualized by FRET following treatment of human monocyte derived DC with B7-DC XAb (open histograms) or with isotype control antibody (filled histograms). For FIG. 5B, mouse bone marrow derived DC were labeled, treated, and analyzed as in FIG. 5A. FIG. 5C indicates the inability of the IA^b specific IgM antibody 25-9-3 (open dark histograms), B7-DC XAb (open light histograms), and isotype control antibody treated samples (filled histograms) to induce FRET (top left and middle panels). Binding of the class II specific IgM antibody to the mouse DC analyzed is shown (top right panel). FIG. 5D indicates the ability of B7-DC-specific IgG antibody (open histograms on left of each panel) or no IgG antibody (open histograms on right of each panel) to inhibit FRET induced by the MTAb B7-DC XAb. Absence of FRET induced by Isotype control antibody is shown in reference (filled histograms). For FIGS. 5E and 5F, immunoprecipitates of membrane proteins from B7-DC XAb or control antibody treated DC were isolated using biotin tagged IA^b-specific KH74 antibody. The precipitates were analyzed by Western blot using mouse-specific TREM-2 and CD40 antibodies as probes. […]

B16 melanoma cells = conditions: mice injected intravenously with antibody directly or DCs pre-treated with antibody and tumor antigen; cited from earlier work

**Q.** Which results are given for “B7-DC XAb: human monoclonal IgM from a Waldenstrom's macroglobulinemia patient that binds and cross-links B7-DC on DC”?
**A.** intracellular calcium signal (mouse DC [1]): prolonged calcium signals; NF-κB activation (NF-κB; DC from CD40 KO mice): absence of NF-κB activation; NF-κB activation (NF-κB; DC from wild type mice): activating NF-κB; NF-κB mobilization (NF-κB; TREM-2 KO cells): mobilization of NF-κB; association of TREM-2 with class II IA^b by co-immunoprecipitation (mouse DC [2]; lysates 5 minutes after treatment): co-immunoprecipitation of TREM-2 with the class II molecule IA^b; recruitment of CD40 to the cap, co-precipitation with class II (mouse DC [2]; mouse DC): co-precipitation with class II molecules; protection against B16 melanoma challenge (B16 melanoma cells): protected against challenge by B16 melanoma cells

Source: patent US11274131B2, “IgM-mediated receptor clustering and cell modulation” (MAYO FOUNDATION FOR MEDICAL EDUCATION AND RESEARCH, priority 2007, dated 2022)
